The text below walks through data of patent publication US20160002247A1, “8-SUBSTITUTED IMIDAZOPYRIMIDINONE DERIVATIVE HAVING AUTOTAXIN INHIBITORY ACTIVITY” (THE UNIVERSITY OF TOKYO, priority 2013, published 2016).

The target in the assay is T1, Human autotaxin enzyme (Homo sapiens, UniProt Q13822).
T1 construct: purchased R&D System
As to the kind of experiment: Evaluation of autotaxin inhibitor, Method C (Test Example 3): 18:0 Lyso PC, choline assay, Resorufin fluorescence. The note with it: Assay Method C (Test Example 3), human autotaxin, 18:0 Lyso PC substrate; read-out: Inhibitory Activity (autotaxin enzyme inhibitory activity, IC50 class). It counts as biochemical. The method, then: (Method C) Evaluation of Autotaxin Inhibitor
Solution B containing 100 mM Tris-HCl buffer (pH7.5), 150 mM NaCl, 5 mM MgCl2 and 0.05% Triton X-100 was prepared. Human autotaxin enzyme (purchased from R&D System) was diluted with Solution B, and 2.5 μL of which was added to a solution of test compound in DMSO. Furthermore, 2.5 μl of 200 μM 18:0 Lyso PC (purchased from Avanti Polar Lipids) in Solution B was added and allowed to react at room temperature for 2 hours. After completion of the reaction, 15 μL of the coline assay reagent (100 mM Tris-HCl buffer (pH7.5), 5 mM MgCl2, 77 μg/mL choline oxidase, 10 μg/mL peroxidase, 25 μM 10-acetyl-3,7-dihydroxyphenoxazine and excess autotaxin inhibitor) was added and allowed to react at room temperature for 20 minutes. The fluorescent dye Resorufin, which was produced by the reaction, was detected. The fluorescence was detected using ViewLux (PerkinElmer, Inc.) with an excitation wavelength of 531 nm and a fluorescence wavelength of 598 nm.
The percent inhibition of the test compound was calculated by assuming the sample with no test compound as 0% inhibition and the sample with no enzyme as 100% inhibition, and the percent inhibitions at different concentrations of the test compound were plotted to obtain a concentration-dependent curve.
Regarding `CCCCCn1c(N2CCC(c3ccccc3)C2)cc(=O)n2cc(-c3ccc(Cl)cc3)nc12` (stereo not drawn) [Compound 327], the IC50 lay within 0.1 to 1 µM.

In the case of `CCCCCn1c(N2CCCC(CN)C2)cc(=O)n2cc(-c3ccc(Cl)cc3)nc12` (stereo not drawn) [Compound 328], the IC50 was 0.1 to 1 µM.

For the compound `CCCCCn1c(N2CCC3CNCC32)cc(=O)n2cc(-c3ccc(Cl)cc3)nc12` (stereo not drawn) [Compound 329], the IC50 was in the range of 0.1 to 1 µM.

Consider `CCCCCn1c(N2CCC3(CNC3)C2)cc(=O)n2cc(-c3ccc(Cl)cc3)nc12` [Compound 330], for which the IC50 was in the range of 0.1 to 1 µM.

Regarding `CCCCCn1c(N2CC3CNCC3C2)cc(=O)n2cc(-c3ccc(Cl)cc3)nc12` (stereo not drawn) [Compound 331], the IC50 lay in the range of 0.1 to 1 µM.

On to `CCCCCn1c(N2CCC(C3CNC3)C2)cc(=O)n2cc(-c3ccc(Cl)cc3)nc12` (stereo not drawn) [Compound 332], for which the IC50 lay in the range of 0.1 to 1 µM.

On to `CCCCCn1c(NC(C)=O)cc(=O)n2cc(-c3ccc(Cl)cc3)nc12` [Compound 333], for which the IC50 lay in the range of 0.1 to 1 µM.

As to `CCCCCn1c(N2CCC[C@H]2C(=O)O)cc(=O)n2cc(-c3ccc(Cl)cc3)nc12` [Compound 334], the IC50 is over 1 µM.

As for `CCCCCn1c(N2CCC[C@H]2C(=O)NCCCn2ccnc2)cc(=O)n2cc(-c3ccc(Cl)cc3)nc12` [Compound 335], the IC50 fell in the range of 0.1 to 1 µM.

In the case of `CCCCCn1c(N2CCC[C@H]2C(=O)N(C)CCC#N)cc(=O)n2cc(-c3ccc(Cl)cc3)nc12` [Compound 336], the IC50 lay within 0.01 to 0.1 µM.

For the compound `CCCCCn1c(N2CCC[C@H]2C(=O)N2CCC[C@H]2C(=O)O)cc(=O)n2cc(-c3ccc(Cl)cc3)nc12` [Compound 337], the IC50 lay in the range of 0.01 to 0.1 µM.

As for `CCCCCn1c(N2CCC[C@H]2C(=O)NCCCOC)cc(=O)n2cc(-c3ccc(Cl)cc3)nc12` [Compound 338], the IC50 lay in the range of 0.01 to 0.1 µM.

Regarding `CCCCCn1c(N2CCC[C@H]2C(=O)NCCCO)cc(=O)n2cc(-c3ccc(Cl)cc3)nc12` [Compound 339], the IC50 was 0.01 to 0.1 µM.

Regarding `CCCCCn1c(N2CCC[C@H]2C(=O)NCCC(=O)OC)cc(=O)n2cc(-c3ccc(Cl)cc3)nc12` [Compound 340], the IC50 lay in the range of 0.01 to 0.1 µM.

With `CCCCCn1c(N2CCC[C@H]2C(=O)NCCN2CCCC2=O)cc(=O)n2cc(-c3ccc(Cl)cc3)nc12` [Compound 341], the IC50 fell in the range of 0.01 to 0.1 µM.

On to `CCCCCn1c(N2CCC[C@H]2C(=O)NCCn2ccnc2)cc(=O)n2cc(-c3ccc(Cl)cc3)nc12` [Compound 342], for which the IC50 fell in the range of 0.1 to 1 µM.

Turning to `CCCCCn1c(N2CCC[C@H]2C(=O)NCCC(=O)N2CCOCC2)cc(=O)n2cc(-c3ccc(Cl)cc3)nc12` [Compound 343], the IC50 fell in the range of 0.01 to 0.1 µM.

Consider `CCCCCn1c(N2CCC[C@H]2C(=O)NCCC(=O)N(C)C)cc(=O)n2cc(-c3ccc(Cl)cc3)nc12` [Compound 344], for which the IC50 fell in the range of 0.1 to 1 µM.

`CCCCCn1c(N2CCC[C@H]2C(=O)NCCCCC(=O)O)cc(=O)n2cc(-c3ccc(Cl)cc3)nc12` [Compound 345]: the IC50 was under 0.01 µM.

On to `CCCCCn1c(N2CCC[C@H]2C(=O)N(C)CCCO)cc(=O)n2cc(-c3ccc(Cl)cc3)nc12` [Compound 346], for which the half-inhibitory concentration (IC50) was in the range of 0.01 to 0.1 µM.

Turning to `CCCCCn1c(N2CCC[C@H]2C(=O)NC2(CC(=O)OC)CCOCC2)cc(=O)n2cc(-c3ccc(Cl)cc3)nc12` [Compound 347], the IC50 is 0.01 to 0.1 µM.

`CCCCCn1c(N2CCC[C@H]2C(=O)NCC(=O)O)cc(=O)n2cc(-c3ccc(Cl)cc3)nc12` [Compound 348]: the IC50 is under 0.01 µM.

For `CCCCCn1c(N2CCC[C@H]2C(=O)N2CCCC2C(=O)O)cc(=O)n2cc(-c3ccc(Cl)cc3)nc12` (stereo partly drawn) [Compound 349], the IC50 is under 0.01 µM.

On to `CCCCCn1c(N2CCC[C@H]2C(=O)NC(C)(C)CC(=O)O)cc(=O)n2cc(-c3ccc(Cl)cc3)nc12` [Compound 350], for which the IC50 is under 0.01 µM.

As for `CCCCCn1c(N2CCC[C@H]2C(=O)NCCCN)cc(=O)n2cc(-c3ccc(Cl)cc3)nc12` [Compound 352], the IC50 was over 1 µM.

In the case of `CCCCCn1c(N2CCC[C@H]2C(=O)N(C)CC(=O)O)cc(=O)n2cc(-c3ccc(Cl)cc3)nc12` [Compound 353], the IC50 was under 0.01 µM.

On to `CCCCCn1c(N2CCC[C@H]2C(=O)NCCCC(=O)O)cc(=O)n2cc(-c3ccc(Cl)cc3)nc12` [Compound 354], for which the IC50 was under 0.01 µM.

Take `CCCCCn1c(N2CCC[C@H]2C(=O)NCC(C)C(=O)O)cc(=O)n2cc(-c3ccc(Cl)cc3)nc12` (stereo partly drawn) [Compound 355]: the IC50 was under 0.01 µM.

As for `CCCCCn1c(N2CCC[C@H]2C(=O)NC(C)CC(=O)O)cc(=O)n2cc(-c3ccc(Cl)cc3)nc12` (stereo partly drawn) [Compound 356], the IC50 is under 0.01 µM.

With `CCCCCn1c(N(C)C(C)=O)cc(=O)n2cc(-c3ccc(Cl)cc3)nc12` [Compound 361], the IC50 is over 1 µM.

As for `CCCCCn1c(-c2ccc(C(=O)O)cc2)cc(=O)n2cc(-c3ccc(Cl)cc3)nc12` [Compound 362, 4-(2-(4-chlorophenyl)-5-oxo-8-pentyl-5,8-dihydroimidazo[1,2-a]pyrimidin-7-yl)benzoic acid], the IC50 fell in the range of 0.01 to 0.1 µM.

Turning to `CCCCCn1c(-c2ccc(C(=O)NCCNC(=O)OCc3ccccc3)cc2)cc(=O)n2cc(-c3ccc(Cl)cc3)nc12` [Compound 363, benzyl 2-(4-(2-(4-chlorophenyl)-5-oxo-8-pentyl-5,8-dihydroimidazo[1,2-a]pyrimidin-7-yl)benzamide)ethylcarbamate], the IC50 fell in the range of 0.01 to 0.1 µM.

For `CCCCCn1c(-c2ccc(C(=O)NCCN)cc2)cc(=O)n2cc(-c3ccc(Cl)cc3)nc12` [Compound 364, N-(2-aminoethyl)-4-(2-(4-chlorophenyl)-5-oxo-8-pentyl-5,8-dihydroimidazo[1,2-a]pyrimidin-7-yl)benzamide], the IC50 is 0.01 to 0.1 µM.

With `CCCCCn1c(-c2ccc(C(=O)NCCN3CC4(COC4)C3)cc2)cc(=O)n2cc(-c3ccc(Cl)cc3)nc12` [Compound 365], the IC50 lay in the range of 0.01 to 0.1 µM.

Regarding `CCCCCn1c(-c2cnc(OC)nc2)cc(=O)n2cc(-c3ccc(Cl)cc3)nc12` [Compound 373], the IC50 is 0.01 to 0.1 µM.

Take `CCCCCn1c(-c2ccc(C(N)=O)cc2)cc(=O)n2cc(-c3ccc(Cl)cc3)nc12` [Compound 375]: the IC50 was 0.01 to 0.1 µM.

For `N#CCCCCn1c(-c2ccc(C(=O)NCCN3CCOCC3)cc2)cc(=O)n2cc(-c3ccc(C(F)(F)F)cc3)nc12` [Compound 376], the IC50 was in the range of 0.01 to 0.1 µM.

Regarding `CN(C)CCNC(=O)c1ccc(-c2cc(=O)n3cc(-c4ccc(C(F)(F)F)cc4)nc3n2CCCCC#N)cc1` [Compound 377], the IC50 was in the range of 0.01 to 0.1 µM.

As for `CN(C)CCNC(=O)c1ccc(-c2cc(=O)n3cc(-c4ccc(Cl)cc4)nc3n2CCCCC#N)cc1` [Compound 378], the IC50 was in the range of 0.01 to 0.1 µM.

For `CN(C)CCNC(=O)c1ccc(-c2cc(=O)n3cc(-c4ccc(Cl)cc4)nc3n2CCCC(F)(F)F)cc1` [Compound 381], the IC50 lay within 0.01 to 0.1 µM.

For `NC(=O)c1ccc(-c2cc(=O)n3cc(-c4ccc(Cl)cc4)nc3n2CCCC(F)(F)F)cc1` [Compound 382], the IC50 is 0.01 to 0.1 µM.

For the compound `O=C(NCCN1CCOCC1)c1ccc(-c2cc(=O)n3cc(-c4ccc(Cl)cc4)nc3n2CCCC(F)(F)F)cc1` [Compound 383], the IC50 lay in the range of 0.01 to 0.1 µM.

On to `CN(C)CCNC(=O)c1ccc(-c2cc(=O)n3cc(-c4ccc(C#N)cc4)nc3n2CCCC(F)(F)F)cc1` [Compound 387], for which the IC50 was in the range of 0.01 to 0.1 µM.

As to `N#Cc1ccc(-c2cn3c(=O)cc(-c4ccc(C(N)=O)cc4)n(CCCC(F)(F)F)c3n2)cc1` [Compound 388], the IC50 lay in the range of 0.01 to 0.1 µM.

For `CCCCCn1c(-c2ccc(C(=O)NCCO)cc2)cc(=O)n2cc(-c3ccc(Cl)cc3)nc12` [Compound 390], the IC50 lay in the range of 0.01 to 0.1 µM.
